According to US8501732B2, “Aminomethyl quinolone compounds” (Hoffmann-La Roche Inc., priority 2011, dated 2013):

Legend:
[1] = system: phospho(Ser63)-c-jun in HK-2 cells; assay: Cell-Based Assay for JNK Inhibitors (in-cell ELISA, phospho(Ser63)-c-jun after TNFα); details: HK-2 cells (human proximal tubule cells), 60 minutes compound, then 10 ng/mL TNFα for 30 minutes
Procedure: Cell-Based Assay for JNK Inhibitors
The cell-based assay employed the in-cell ELISA method to determine the ability of compounds to prevent the generation of phospho(Ser63)-c-jun in HK-2 cells (human proximal tubule cells) in response to stimulation with tumor necrosis factor α (TNFα). In brief, for quantification of phospho(Ser63)-c-jun, the cells (in 96-well format) were fixed and permeablized then incubated sequentially with a rabbit anti-phospho-c-jun First Antibody specific for the presence of the phospho-Ser63 epitope and a donkey anti-rabbit IgG Second Antibody linked to horseradish peroxidase (HRP) for colorimetric quantitation of binding. […] Blank wells received no TNFα stimulation or compound. Additional Control wells received TNFα stimulation, but no compound.
Stock cultures of HK-2 cells (ATCC, Manassas, Va.) were grown under a 5% CO2/[…] atmosphere at 37 degrees C. in Keratinocyte-SFM medium (KSFM, Invitrogen, Grand Island, N.Y.) containing 5 μg/L epidermal growth factor and 5 mg/L bovine pituitary extract (both supplied with the medium), additionally supplemented with 10% (v/v) fetal calf serum (FCS; Invitrogen, Grand Island, N.Y.) and 1% (v/v) antibiotic-antimycotic (ABAM: Sigma, St. Louis, Mo.). For assays, cells were seeded in collagen coated 96-well polystyrene plates (BD Biosciences, Franklin Lakes, N.J.) at a density of 40,000 cells/well and cultured for 24 h in the same medium (100 μL/well) followed by a further 16-24 h in 100 μL of similar medium, but without FCS. […] Plates were then allowed to stand at room temperature for 20 minutes before being washed with 200 μL/well of PBS. (Further steps were performed immediately or the plates were stored at 4 degrees C. and the assay completed the next day.) To each well was added 100 μL 1% (v/v) TritonX-100 (Sigma, St. Louis, Mo.) in PBS followed by 20 minutes standing at room temperature, washing with 200 μL/well PBS, the addition of 100 μL/well of Quenching buffer (1% (v/v) hydrogen peroxide (Sigma, St. Louis, Mo.) and 0.1% (w/v) sodium azide (Fisher Scientific, Fair Lawn, N.J.)) in PBS and a further 20 minutes at room temperature. Plates were then washed twice with 200 μL/well of 0.1% (v/v) Tween-20 (Teknova, Hollister, Calif.) in PBS before addition of 200 μL/well of 2% BSA/0.1% Tween-20 in PBS and a further 1 hour at room temperature. […] After a further one hour, rabbit anti-phospho-c-jun-Ser63 is added directly to the solution in the Blank wells resulting in 1:250 dilution of this antibody. Plates were then placed on a slowly rotating platform at 4 degrees C. overnight. Wells were then washed thrice with 200 μL/well PBS/0.1% Tween-20. After addition of the third wash, the plates were placed on a slowly rotating platform for 15 minutes at room temperature. The final PBS/Tween20 wash was then replaced with 100 μL/well of donkey anti-rabbit HRP-labeled Second Antibody (Jackson ImmunoResearch Laboratory, West Grove, Pa.) diluted 1:10,000 in Antibody Dilution Buffer and the plates placed on a slowly rotating platform for 1 hour at room temperature. Wells were then washed four times with 200 μL/well PBS/0.1% Tween-20, including slow rotation for 30 minutes for the third wash and 10 minutes for the final wash. The wells were then washed once with 200 μL PBS without Tween-20. […] Absorbance was determined at a 450 nm wavelength using a spectrophotometer (Molecular Devices SpectraMax 250).

JNK1 = JNK1 (Homo sapiens (Human), UniProt P45983); assay: In Vitro JNK1 Assay (TR-FRET, phosphorylation of GST-c-Jun); format: biochemical; details: 0.2 nM active JNK1 kinase, 26.7 nM GST-c-Jun, 2 μM ATP, 30 min at room temperature
In short: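 IC50 derived from percent inhibition across 10 serially diluted concentrations, with TR-FRET detection of phospho-c-Jun via an anti-phospho-c-Jun antibody after EDTA stop. Substrate was GST-c-Jun 1-79, reacted 30 min at room temperature in pH 7.0 HEPES buffer with MgCl2, DTT, vanadate and BSA.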

Chain of JNK1 (P45983 whole entry): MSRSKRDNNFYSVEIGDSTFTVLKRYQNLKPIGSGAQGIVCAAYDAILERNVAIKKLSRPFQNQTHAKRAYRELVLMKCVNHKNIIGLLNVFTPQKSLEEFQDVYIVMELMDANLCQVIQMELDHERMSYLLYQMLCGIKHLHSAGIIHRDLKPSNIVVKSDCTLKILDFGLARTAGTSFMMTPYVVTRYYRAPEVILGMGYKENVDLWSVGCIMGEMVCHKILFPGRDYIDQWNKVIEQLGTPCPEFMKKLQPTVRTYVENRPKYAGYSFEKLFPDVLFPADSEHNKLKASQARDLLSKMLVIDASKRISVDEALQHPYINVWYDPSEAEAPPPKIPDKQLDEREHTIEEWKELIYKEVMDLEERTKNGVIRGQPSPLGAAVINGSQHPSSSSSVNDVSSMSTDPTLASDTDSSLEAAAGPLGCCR

Row | Compound | EC50 [1] | IC50 (JNK1)
1 | COc1ccc(C(=O)NCc2cn(-c3ccccc3)c3cc(Cl)ccc3c2=O)cn1 [Example I-35, N-(7-Chloro-4-oxo-1-phenyl-1,4-dihydro-quinolin-3-ylmethyl)-6-methoxy-nicotinamide] | 100000 nM | 54 nM
2 | COC(=O)c1c(CNC(=O)c2ccc(Cl)cc2)c(=O)c2ccc(OC)cc2n1-c1ccccc1 [Example I-168, 3-[(4-Chloro-benzoylamino)-methyl]-7-methoxy-4-oxo-1-phenyl-1,4-dihydro-quinoline-2-carboxylic acid methyl ester] | 32000 nM | 100 nM
3 | COC(=O)c1c(CNC(=O)c2ccc(S(N)(=O)=O)cc2)c(=O)c2ccc(Cl)cc2n1-c1ccccc1 [Example I-115, 7-Chloro-4-oxo-1-phenyl-3-[(4-sulfamoyl-benzoylamino)-methyl]-1,4-dihydro-quinoline-2-carboxylic acid methyl ester] | 2400 nM | 8 nM
4 | CC(C)(C)OC(=O)N1CC2CC1CN2c1ccc(C(=O)NCc2cn(-c3ccccc3)c3cc(Cl)ccc3c2=O)cn1 (stereo not drawn) [Example I-62, 5-{5-[(7-Chloro-4-oxo-1-phenyl-1,4-dihydro-quinolin-3-ylmethyl)-carbamoyl]-pyridin-2-yl}-2,5-diaza-bicyclo[2.2.1]heptane-2-carboxylic acid tert-butyl ester] | 13000 nM | 11 nM
5 | COC(=O)c1c(CNC(=O)c2cccnc2)c(=O)c2ccc(OC)cc2n1-c1ccccc1 [Example I-165, 7-Methoxy-4-oxo-1-phenyl-3-{[(pyridine-3-carbonyl)-amino]-methyl}-1,4-dihydro-quinoline-2-carboxylic acidmethyl ester] | 100000 nM | 65 nM
6 | COC(=O)c1ccc(C(=O)NCc2c(C(=O)OC)n(-c3ccccc3)c3cc(Cl)ccc3c2=O)cc1 [Example I-133, 7-Chloro-3-[(4-methoxycarbonyl-benzoylamino)-methyl]-4-oxo-1-phenyl-1,4-dihydro-quinoline-2-carboxylic acid methyl ester] | 13000 nM | 6 nM
7 | O=C(NCc1cn(-c2ccccc2)c2cc(Cl)ccc2c1=O)c1ccc(N2CCCCCC2)nc1 [Example I-68, 6-Azepan-1-yl-N-(7-chloro-4-oxo-1-phenyl-1,4-dihydro-quinolin-3-ylmethyl)-nicotinamide] | 17000 nM | 21 nM
8 | COC(=O)c1c(CNC(=O)c2ccccc2)c(=O)c2ccc(Cl)cc2n1-c1ccccc1 [Example I-150, 7-Chloro-3-[(benzoylamino)-methyl]-4-oxo-1-phenyl-1,4-dihydro-quinoline-2-carboxylic acid methyl ester] | 7700 nM | 12 nM
9 | CN(C)C(=O)c1c(CNC(=O)c2ccc(S(C)(=O)=O)cc2)c(=O)c2ccc(Cl)cc2n1-c1ccccc1 [Example I-19, 7-Chloro-3-[(4-methanesulfonyl-benzoylamino)-methyl]-4-oxo-1-phenyl-1,4-di-hydro-quinoline-2-carboxylic acid dimethylamide] | 30000 nM | 180 nM
10 | O=C(NCc1cn(-c2ccccc2)c2cc(Cl)ccc2c1=O)c1cnn(-c2ccccc2)c1 [Example I-37, 1-Phenyl-1H-pyrazole-4-carboxylic acid (7-chloro-4-oxo-1-phenyl-1,4-dihydro-quinolin-3-ylmethyl)-amide] | 25000 nM | 72 nM
11 | CC(C)(C)OC(=O)NC1CCN(c2ccc(C(=O)NCc3cn(-c4ccccc4)c4cc(Cl)ccc4c3=O)cn2)CC1 [Example I-81, {5′-[(7-Chloro-4-oxo-1-phenyl-1,4-dihydro-quinolin-3-ylmethyl)-carbamoyl]-3,4,5,6-tetrahydro-2H-[1,2]bipyridinyl-4-yl}-carbamic acid tert-butyl ester] | 100000 nM | 65 nM
12 | O=C(NCc1cn(-c2ccccc2)c2cc(Cl)ccc2c1=O)c1ccc(N2CCCC2)nc1 [Example I-84, N-(7-Chloro-4-oxo-1-phenyl-1,4-dihydro-quinolin-3-ylmethyl)-6-pyrrolidin-1-yl-nicotinamide] | 52000 nM | 100 nM
13 | O=C(NCc1cn(-c2ccccc2)c2cc(Cl)ccc2c1=O)c1ccc(N2CCC(CO)CC2)nc1 [Example I-67, 4-Hydroxymethyl-3,4,5,6-tetrahydro-2H-[1,2′]bipyridinyl-5′-carboxylic acid (7-chloro-4-oxo-1-phenyl-1,4-dihydro-quinolin-3-ylmethyl)-amide] | 6300 nM | 20 nM
14 | COC(=O)c1c(CNC(=O)c2ccc(Cl)cc2)c(=O)c2ccc(Cl)cc2n1-c1ccccc1 [Example I-132, 7-Chloro-3-[(4-chloro-benzoylamino)-methyl]-4-oxo-1-phenyl-1,4-dihydro-quinoline-2-carboxylic acid methyl ester] | 9200 nM | 15 nM

The next lines start with the values.

Row | EC50 [1] | IC50 (JNK1) | Compound
15 | 10000 nM | 79 nM | COC(=O)c1c(CNC(=O)c2ccc3cc[nH]c3c2)c(=O)c2ccc(C(F)(F)F)nc2n1-c1ccccc1 [Example I-158, 3-{[(1H-Indole-6-carbonyl)-amino]-methyl}-4-oxo-1-phenyl-7-trifluoromethyl-1,4-dihydro-[1,8]naphthyridine-2-carboxylic acid methyl ester]
16 | 8700 nM | 30 nM | COC(=O)c1c(CNC(=O)c2ccc(-c3ccn[nH]3)cc2)c(=O)c2ccc(C(F)(F)F)nc2n1-c1ccccc1 [Example I-156, 4-Oxo-1-phenyl-3-{[4-(2H-pyrazol-3-yl)-benzoylamino]-methyl}-7-trifluoromethyl-1,4-dihydro-[1,8]naphthyridine-2-carboxylic acid methyl ester]
17 | 38000 nM | 39 nM | COC(=O)c1c(CNC(=O)c2ccc(F)c(F)c2)c(=O)c2ccc(OC)cc2n1-c1ccccc1 [Example I-162, 7-Methoxy-3-[(3,4-difluorobenzoylamino)-methyl]-4-oxo-1-phenyl-1,4-dihydro-quinoline-2-carboxylic acid methyl ester]
18 | 7800 nM | 18 nM | COC(=O)c1c(CNC(=O)c2ccc(N3CCOCC3)nc2)c(=O)c2ccc(C(F)(F)F)nc2n1-c1ccccc1 [Example I-152, 3-{[(6-Morpholin-4-yl-pyridine-3-carbonyl)-amino]-methyl}-4-oxo-1-phenyl-7-trifluoromethyl-1,4-dihydro-[1,8]naphthyridine-2-carboxylic acid methyl ester]
19 | 9600 nM | 51 nM | CN(C)C(=O)c1c(CNC(=O)c2ccc(N3CCC(CCO)CC3)nc2)c(=O)c2ccc(Cl)cc2n1-c1ccccc1 [Example I-25, 4-(2-Hydroxy-ethyl)-3,4,5,6-tetrahydro-2H-[1,2′]bipyridinyl-5′-carboxylic acid (7-chloro-2-dimethylcarbamoyl-4-oxo-1-phenyl-1,4-dihydro-quinolin-3-ylmethyl)-amide]
20 | 8800 nM | 48 nM | COC(=O)c1c(CNC(=O)c2ccc(Cl)c(Cl)c2)c(=O)c2ccc(Cl)cc2n1-c1ccccc1 [Example I-144, 7-Chloro-3-[(3,4-dichloro-benzoylamino)-methyl]-4-oxo-1-phenyl-1,4-dihydro-quinoline-2-carboxylic acid methyl ester]
21 | 3100 nM | 9 nM | O=C(NCc1c(-c2ncco2)n(-c2ccccc2)c2cc(Cl)ccc2c1=O)c1ccc(N2CCOCC2)nc1 [Example I-3, N-(7-Chloro-2-oxazol-2-yl-4-oxo-1-phenyl-1,4-dihydro-quinolin-3-ylmethyl)-6-morpholin-4-yl-nicotinamide]
